Laboratory results published in patent US20230310445A1, “LOX ENZYME INHIBITING METHODS AND COMPOSITIONS” (ANOVIA BIOSCIENCES, INC., priority 2020, published 2023).

Legend:
[1] = target: T1, Recombinant human LOXL2 (lysyl oxidase like 2) (Homo sapiens, UniProt Q9Y4K0); test: LOXL2 inhibition assay (fluorometric, cadaverine/Amplex Red/HRP); assay type: biochemical; conditions: IC50 class; recombinant human LOXL2, cadaverine substrate; read-out: Activity Range LOXL2
T1 construct: purchased R&D systems
T1 sequence (Q9Y4K0 26-774): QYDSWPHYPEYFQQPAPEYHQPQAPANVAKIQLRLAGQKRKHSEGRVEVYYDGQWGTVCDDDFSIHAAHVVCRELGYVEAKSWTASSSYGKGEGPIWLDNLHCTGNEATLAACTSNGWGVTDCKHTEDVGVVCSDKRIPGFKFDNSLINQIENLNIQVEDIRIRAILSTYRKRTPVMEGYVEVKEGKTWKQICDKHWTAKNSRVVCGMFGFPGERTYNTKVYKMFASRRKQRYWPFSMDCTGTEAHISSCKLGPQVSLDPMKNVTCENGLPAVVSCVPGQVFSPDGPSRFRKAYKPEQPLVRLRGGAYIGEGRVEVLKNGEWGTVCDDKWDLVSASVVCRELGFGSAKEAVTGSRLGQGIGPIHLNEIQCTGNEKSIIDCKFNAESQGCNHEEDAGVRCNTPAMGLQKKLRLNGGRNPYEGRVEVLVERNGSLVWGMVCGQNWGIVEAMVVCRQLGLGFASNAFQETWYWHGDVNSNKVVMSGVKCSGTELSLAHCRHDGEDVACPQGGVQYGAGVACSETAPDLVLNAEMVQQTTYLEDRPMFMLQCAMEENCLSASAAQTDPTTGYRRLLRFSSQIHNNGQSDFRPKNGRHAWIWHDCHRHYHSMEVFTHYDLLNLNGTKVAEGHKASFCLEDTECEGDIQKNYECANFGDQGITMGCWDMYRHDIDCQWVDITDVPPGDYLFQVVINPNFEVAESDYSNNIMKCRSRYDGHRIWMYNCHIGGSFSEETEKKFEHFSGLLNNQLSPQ
Summary of the method: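 Both enzymes assayed in 1.2 M urea, 50 mM sodium borate pH 8.0, 10 mM CaCl, with 30 min compound–enzyme preincubation at 37° C before cadaverine/Amplex Red/HRP addition. Fluorescence followed 60 min at 37° C; linear-slope rates, background-subtracted, as % of DMSO control, fitted by 4-parameter variable-slope curve (bottom fixed at 0).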

[2] = target: T2, Recombinant human LOXL3 (lysyl oxidase like 3) (Homo sapiens, UniProt P58215); test: LOXL3 inhibition assay (fluorometric, cadaverine/Amplex Red/HRP); assay type: biochemical; conditions: IC50 class; recombinant human LOXL3, cadaverine substrate; read-out: Activity Range LOXL3
T2 construct: purchased R&D systems
T2 sequence (P58215 26-753): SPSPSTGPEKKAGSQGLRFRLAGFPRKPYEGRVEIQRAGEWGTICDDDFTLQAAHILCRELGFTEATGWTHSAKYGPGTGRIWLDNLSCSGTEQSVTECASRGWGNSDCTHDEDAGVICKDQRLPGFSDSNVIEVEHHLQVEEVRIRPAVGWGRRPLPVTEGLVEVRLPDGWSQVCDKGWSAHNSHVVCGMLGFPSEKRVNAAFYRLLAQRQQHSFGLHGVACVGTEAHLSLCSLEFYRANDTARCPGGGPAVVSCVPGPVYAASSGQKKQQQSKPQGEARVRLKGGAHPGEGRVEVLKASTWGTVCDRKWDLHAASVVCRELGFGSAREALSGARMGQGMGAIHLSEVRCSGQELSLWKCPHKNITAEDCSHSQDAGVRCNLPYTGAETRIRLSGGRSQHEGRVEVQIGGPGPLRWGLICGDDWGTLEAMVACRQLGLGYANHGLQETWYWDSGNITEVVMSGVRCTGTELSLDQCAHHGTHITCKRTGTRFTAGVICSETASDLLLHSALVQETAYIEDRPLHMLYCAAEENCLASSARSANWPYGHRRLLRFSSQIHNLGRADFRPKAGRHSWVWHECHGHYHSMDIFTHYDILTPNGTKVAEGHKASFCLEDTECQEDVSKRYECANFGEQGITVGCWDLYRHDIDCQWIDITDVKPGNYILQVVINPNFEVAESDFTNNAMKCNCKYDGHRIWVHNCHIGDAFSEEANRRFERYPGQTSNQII
Protocol: The ability of compounds to inhibit one or more of the lysyl oxidases LOXL2 and/or LOXL3 was determined using a fluorometric assay. This assay measures the activity of lysyl oxidases by coupling the reaction with horseradish peroxidase-catalyzed […]. The activity assay protocol uses cadaverine as substrate that releases hydrogen peroxide upon transformation by the specific LOX family enzyme present in the sample. Hydrogen peroxide is in turn detected using a red fluorescence substrate for HRP-coupled reactions (Amplex Red Enzyme Assays, Thermo Scientific Fisher). This leads to increase in fluorescence that can be easily detected at Ex/Em=540/590 nm in a fluorescence microplate reader.
Enzymes: Recombinant human LOXL2 (lysyl oxidase like 2) and recombinant human LOXL3 (lysyl oxidase like 3) were purchased from R&D systems and assays were performed in 1.2 M urea, 50 mM sodium borate buffer pH 8.0, and 10 mM CaCl.
Reaction: Final concentration in the LOXL2 and LOXL3 assays were as following and performed in a total volume of […]:
Experimental procedure: 5 μl of freshly prepared reaction buffer were delivered to reaction wells. Compounds were resuspended in 100% DMSO at 10 mM and delivered into buffer using acoustic technology (Echo550; nanoliter range). A 3× solution of LOXL2 or LOXL3 in reaction buffer was prepared (“enzyme solution”) and 5 μL of enzyme solution was added into the reaction wells. Buffer only was added to column 1 for no protein control. Reactions were incubated for 30 minutes at 37° C. A 3×mixture of cadaverine, Amplex Red, and HRP (“Substrate/Detection Mix) was prepared and subsequently 5 μL of the mixture added to each reaction well. Progress of reactions was monitored for 60 minutes at 37° C. using Clariostar plate reader (ex 530-12, ems 600-40). For all activity assays, pan-LOX inhibitor CCT365623 (Tang et al, 2017) and LOXL2/LOXL3 inhibitor PAT-1251 (PharmaKea) were included as standards.
Data analysis: Slope of the linear portion of the progress curve was calculated using Clariostar software. Typical analysis interval was between 8-30 min, but varied between experiments. The background subtracted signals (No protein wells are considered as background) were converted to % activity relative to DMSO controls. Data was analyzed using GraphPad Prism 4 with “sigmoidal dose-response (variable slope)”; 4 parameters with Hill Slope. Constraints: Bottom=Constant equal to 0. Top=Must be less than 120.

IC50 [1]	IC50 [2]	SMILES
1 to 30 µM	> 30 µM	NCc1cccc(S(=O)(=O)N2C[C@H](C(=O)N3CCOCC3)C[C@@H](c3ccccc3)C2)n1 (racemic) [Example 114T, trans-(1-((6-(Aminomethyl)pyridin-2-yl)sulfonyl)-5-phenylpiperidin-3-yl)(morpholino)methanone 2,2,2-trifluoroacetate]
> 30 µM	> 30 µM	NCc1cccc(S(=O)(=O)N2C[C@@H](C(=O)N3CCS(=O)(=O)CC3)C[C@@H](c3ccccc3)C2)n1 (racemic) [Example 115, cis-(1-((6-(Aminomethyl)pyridin-2-yl)sulfonyl)-5-phenylpiperidin-3-yl)(1,1-dioxidothiomorpholino)methanone 2,2,2-trifluoroacetate]
